# Like-named read-outs stand apart in the source and are kept apart here.
# Columns and labels:
# [1] = molecular target: T1, CDK4 (Homo sapiens, UniProt P11802); test: CDK4 percentage degradation in Calu-1 cells (immunoblotting); type: cell-based; details: for inhibition at 0.2 µM: read-out: CDK4 Degradation (200 nM); for inhibition at 10 µM: read-out: CDK4 Degradation (10 μM)
# T1 construct: endogenous in cells; host or cells: Calu-1
# Procedure: (§1) […] A: protein percentage degradation >=80%; B: protein percentage degradation <80%, and >=50%; C: protein percentage degradation <50%, and >=30%; D: protein percentage degradation <30%.
# (§2) Cultured cells were washed with cold PBS once and lysed in cold RIPA buffer supplemented with protease inhibitors and phosphatase inhibitors (Beyotime Biotechnology). The solutions were then incubated at 4° C. for 30 min with gentle agitation to fully lysed cells. Cell lysates were centrifuged at 13,000 rpm for 10 min at 4° C. and pellets were discarded. Total protein concentrations in the lysates were determined following BCA assays (Beyotime Biotechnology). Cell lysates were mixed with Laemmli loading buffer and heated at 99° C. for 5 min. Proteins were resolved on SDS-PAGE and visualized using Western ECL Substrate kits on a ChemiDoc MP Imaging system (Bio-Rad). Protein bands were quantitated using the Image Lab software provided by Bio-Rad.
# [2] = system: cyclin D1; test: Cyclin D1 percentage degradation in Calu-1 cells (immunoblotting); type: cell-based; details: 16 hours
# Procedure: as §1, §2
# T1 sequence (P11802 2-303 limits assumed): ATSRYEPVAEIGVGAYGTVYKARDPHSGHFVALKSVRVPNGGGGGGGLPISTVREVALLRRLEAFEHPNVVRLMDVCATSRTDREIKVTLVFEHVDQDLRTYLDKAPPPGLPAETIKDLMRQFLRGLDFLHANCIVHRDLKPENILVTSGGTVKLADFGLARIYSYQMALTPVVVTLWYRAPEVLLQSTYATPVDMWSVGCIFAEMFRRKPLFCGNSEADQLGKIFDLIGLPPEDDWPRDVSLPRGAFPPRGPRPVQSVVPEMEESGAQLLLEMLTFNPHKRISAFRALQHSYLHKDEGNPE
# T1 sequence (P24385 whole entry partner): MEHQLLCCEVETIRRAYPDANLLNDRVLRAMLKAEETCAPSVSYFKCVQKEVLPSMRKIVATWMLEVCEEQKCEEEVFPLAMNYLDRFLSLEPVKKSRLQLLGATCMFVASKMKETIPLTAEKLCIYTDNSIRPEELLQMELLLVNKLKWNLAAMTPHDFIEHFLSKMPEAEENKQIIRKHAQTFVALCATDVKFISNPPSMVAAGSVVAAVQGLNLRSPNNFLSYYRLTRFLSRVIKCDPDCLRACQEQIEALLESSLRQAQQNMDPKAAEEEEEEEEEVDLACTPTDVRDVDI
# T1 sequence (Q16531 2-1140 limits assumed, further chain): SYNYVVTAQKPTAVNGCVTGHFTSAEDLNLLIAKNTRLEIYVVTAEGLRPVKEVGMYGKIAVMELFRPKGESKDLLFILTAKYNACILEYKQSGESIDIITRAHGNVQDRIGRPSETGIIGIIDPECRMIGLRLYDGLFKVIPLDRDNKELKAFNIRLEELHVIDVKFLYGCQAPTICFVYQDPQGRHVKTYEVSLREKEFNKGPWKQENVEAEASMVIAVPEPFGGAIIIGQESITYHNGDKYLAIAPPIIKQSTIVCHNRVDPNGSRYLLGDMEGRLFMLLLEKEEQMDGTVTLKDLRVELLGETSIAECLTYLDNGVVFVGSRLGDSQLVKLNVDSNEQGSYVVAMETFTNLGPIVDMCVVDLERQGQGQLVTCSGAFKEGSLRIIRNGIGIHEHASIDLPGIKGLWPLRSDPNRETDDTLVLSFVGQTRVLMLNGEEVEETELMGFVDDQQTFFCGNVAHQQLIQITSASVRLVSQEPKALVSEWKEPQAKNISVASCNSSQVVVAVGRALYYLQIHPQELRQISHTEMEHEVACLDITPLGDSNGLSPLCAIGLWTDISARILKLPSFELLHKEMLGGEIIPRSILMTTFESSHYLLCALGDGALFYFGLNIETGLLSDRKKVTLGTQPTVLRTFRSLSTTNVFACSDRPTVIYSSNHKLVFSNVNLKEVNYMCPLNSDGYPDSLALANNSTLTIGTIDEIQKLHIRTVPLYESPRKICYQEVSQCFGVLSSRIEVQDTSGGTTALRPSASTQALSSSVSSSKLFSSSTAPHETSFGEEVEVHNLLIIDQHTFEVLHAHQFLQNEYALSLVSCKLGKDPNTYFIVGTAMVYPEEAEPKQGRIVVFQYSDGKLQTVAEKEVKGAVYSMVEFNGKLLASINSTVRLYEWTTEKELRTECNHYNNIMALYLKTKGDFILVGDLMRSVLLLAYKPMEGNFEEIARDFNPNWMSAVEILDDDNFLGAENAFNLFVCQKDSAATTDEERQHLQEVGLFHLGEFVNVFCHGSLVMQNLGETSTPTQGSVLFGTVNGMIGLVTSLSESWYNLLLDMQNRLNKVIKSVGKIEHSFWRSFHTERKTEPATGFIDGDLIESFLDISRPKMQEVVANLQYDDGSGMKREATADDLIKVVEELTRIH
"inhibition at 0.2 µM ([1]; Calu-1 cells, 200 nM, 16 hours) [%]","inhibition at 10 µM ([1]; Calu-1 cells, 16 hours) [%]",Structure (SMILES),CyclinD1 Degradation (200 nM) [2],CyclinD1 Degradation (10 μM) [2],"inhibition at 0.2 µM ([1]; Calu-1, 16 h) [%]"
> 80,,"CC(=O)c1c(C)c2cnc(Nc3ccc(N4CCN(CC(=O)NCCOCCOCCC(=O)Nc5cc6c(cc5C(=O)Nc5ccc(C)cn5)CCN6)CC4)cn3)nc2n(C2CCCC2)c1=O [CPD-360, 6-(3-(2-(2-(2-(4-(6-((6-Acetyl-8-cyclopentyl-5-methyl-7-oxo-7,8-dihydropyrido[2,3-d]pyrimidin-2-yl)amino)pyridin-3-yl)piperazin-1-yl)acetamido)ethoxy)-ethoxy)propanamido)-N-(5-methylpyridin-2-yl)indoline-5-carboxamide]",A (protein percentage degradation >=80%),,
,< 30,"Cc1nc(NC(=O)c2ccccc2NC(=O)CCCCNC(=O)CN2CCN(c3ccc(Nc4ncc(F)c(-c5cc(F)c6nc(C)n(C(C)C)c6c5)n4)nc3)CC2)sc1C [CPD-303, N-(4,5-Dimethylthiazol-2-yl)-2-(5-(2-(4-(6-((5-fluoro-4-(4-fluoro-1-isopropyl-2-methyl-1H-benzo[d]imidazol-6-yl)pyrimidin-2-yl)amino)pyridin-3-yl)piperazin-1-yl)acetamido)pentanamido)benzamide]",,D (protein percentage degradation < 30%),
,< 30,"Cc1nc(NC(=O)c2ccccc2NC(=O)CCCCCNC(=O)CN2CCN(Cc3ccc(Nc4ncc(F)c(-c5cc(F)c6nc(C)n(C(C)C)c6c5)n4)nc3)CC2)sc1C [CPD-276, N-(4,5-Dimethylthiazol-2-yl)-2-(6-(2-(4-((6-((5-fluoro-4-(4-fluoro-1-isopropyl-2-methyl-1H-benzo[d]imidazol-6-yl)pyrimidin-2-yl)amino)pyridin-3-yl)methyl)piperazin-1-yl)acetamido)hexanamido)benzamide]",,D (protein percentage degradation < 30%),
< 30,,"CC(=O)c1c(C)c2cnc(Nc3ccc(N4CCN(CC(=O)NCCCCNc5cccc(C(=O)Nc6nc(C)c(C)s6)c5C)CC4)cn3)nc2n(C2CCCC2)c1=O [CPD-099, 3-((4-(2-(4-(6-((6-Acetyl-8-cyclopentyl-5-methyl-7-oxo-7,8-dihydropyrido[2,3-d]pyrimidin-2-yl)amino)pyridin-3-yl)piperazin-1-yl)acetamido)butyl)amino)-N-(4,5-dimethylthiazol-2-yl)-2-methylbenzamide]",D (protein percentage degradation <30%),,
,,"CC(=O)c1c(C)c2cnc(Nc3ccc(N4CCN(C(=O)CCOCCOCCC(=O)Nc5ccccc5C(=O)Nc5nc(C)c(C)s5)CC4)cn3)nc2n(C2CCCC2)c1=O [CPD-128, 2-(3-(2-(3-(4-(6-((6-Acetyl-8-cyclopentyl-5-methyl-7-oxo-7,8-dihydropyrido[2,3-d]pyrimidin-2-yl)amino)pyridin-3-yl)piperazin-1-yl)-3-oxopropoxy)ethoxy)propanamido)-N-(4,5-dimethylthiazol-2-yl)benzamide]","C (protein percentage degradation <50%, and >=30%)",,50 to 80
< 30,,"CC(=O)c1c(C)c2cnc(Nc3ccc(N4CCN(CC(=O)NCCOCCOCCOCCOCCOCCNc5ccc(C(=O)Nc6ncc(-c7ccccc7)s6)c(C)c5)CC4)cn3)nc2n(C2CCCC2)c1=O [CPD-001, 4-((1-(4-(6-((6-Acetyl-8-cyclopentyl-5-methyl-7-oxo-7,8-dihydropyrido[2,3-d]pyrimidin-2-yl)amino)pyridin-3-yl)piperazin-1-yl)-2-oxo-6,9,12,15,18-pentaoxa-3-azaicosan-20-yl)amino)-2-methyl-N-(5-phenylthiazol-2-yl)benzamide]",D (protein percentage degradation <30%),,
,,"CC(=O)c1c(C)c2cnc(Nc3ccc(N4CCN(C(=O)CNc5cccc(C(=O)Nc6nc(C)c(C)s6)c5C)CC4)cn3)nc2n(C2CCCC2)c1=O [CPD-124, 3-((2-(4-(6-((6-Acetyl-8-cyclopentyl-5-methyl-7-oxo-7,8-dihydropyrido[2,3-d]pyrimidin-2-yl)amino)pyridin-3-yl)piperazin-1-yl)-2-oxoethyl)amino)-N-(4,5-dimethylthiazol-2-yl)-2-methylbenzamide]",D (protein percentage degradation <30%),,< 30
< 30,,"CC(=O)c1c(C)c2cnc(Nc3ccc(N4CCN(CC(=O)NCCCC(=O)Nc5ccccc5C(=O)Nc5nc(C)c(C)s5)CC4)cn3)nc2n(C2CCCC2)c1=O [CPD-171, 2-(4-(2-(4-(6-((6-Acetyl-8-cyclopentyl-5-methyl-7-oxo-7,8-dihydropyrido[2,3-d]pyrimidin-2-yl)amino)pyridin-3-yl)piperazin-1-yl)acetamido)butanamido)-N-(4,5-dimethylthiazol-2-yl)benzamide]",D (protein percentage degradation <30%),,
< 30,,"CC(=O)c1c(C)c2cnc(Nc3ccc(N4CCN(CC(=O)NCCOCCOCCOCCOCCOCCNc5ccc(C(=O)Nc6nc(-c7ccccc7)cs6)c(C)c5)CC4)cn3)nc2n(C2CCCC2)c1=O [CPD-007, 4-((1-(4-(6-((6-Acetyl-8-cyclopentyl-5-methyl-7-oxo-7,8-dihydropyrido[2,3-d]pyrimidin-2-yl)amino)pyridin-3-yl)piperazin-1-yl)-2-oxo-6,9,12,15,18-pentaoxa-3-azaicosan-20-yl)amino)-2-methyl-N-(4-phenylthiazol-2-yl)benzamide]",D (protein percentage degradation <30%),,
,< 30,"Cc1nc(NC(=O)c2ccccc2NC(=O)CCCNC(=O)CN2CCN(c3ccc(Nc4ncc(F)c(-c5cc(F)c6nc(C)n(C(C)C)c6c5)n4)nc3)CC2)sc1C [CPD-302, N-(4,5-Dimethylthiazol-2-yl)-2-(4-(2-(4-(6-((5-fluoro-4-(4-fluoro-1-isopropyl-2-methyl-1H-benzo[d]imidazol-6-yl)pyrimidin-2-yl)amino)pyridin-3-yl)piperazin-1-yl)acetamido)butanamido)benzamide]",,D (protein percentage degradation < 30%),
,50 to 80,"Cc1nc(NC(=O)c2ccccc2NC(=O)CCCCCCCCNC(=O)CN2CCN(c3ccc(Nc4ncc5cc(C(=O)N(C)C)n(C6CCCC6)c5n4)nc3)CC2)sc1C [CPD-293, 7-Cyclopentyl-2-((5-(4-(2-((9-((2-((4,5-dimethylthiazol-2-yl)carbamoyl)phenyl)amino)-9-oxononyl)amino)-2-oxoethyl)piperazin-1-yl)pyridin-2-yl)amino)-N,N-dimethyl-7H-pyrrolo[2,3-d]pyrimidine-6-carboxamide]",,A (protein percentage degradation >= 80%),
< 30,,"CC(=O)c1c(C)c2cnc(Nc3ccc(N4CCN(CC(=O)NCCOCCOCCC(=O)Nc5ccccc5C(=O)Nc5ncc(C)cn5)CC4)cn3)nc2n(C2CCCC2)c1=O [CPD-055, 2-(3-(2-(2-(2-(4-(6-((6-Acetyl-8-cyclopentyl-5-methyl-7-oxo-7,8-dihydropyrido[2,3-d]pyrimidin-2-yl)amino)pyridin-3-yl)piperazin-1-yl)acetamido)ethoxy)ethoxy)propanamido)-N-(5-methylpyrimidin-2-yl)benzamide]",D (protein percentage degradation <30%),,
< 30,,"CC(=O)c1c(C)c2cnc(Nc3ccc(N4CCN(CC(=O)NCCOCCOCCC(=O)Nc5ccccc5C(=O)Nc5ccc(C#N)nn5)CC4)cn3)nc2n(C2CCCC2)c1=O [CPD-369, 2-(3-(2-(2-(2-(4-(6-((6-Acetyl-8-cyclopentyl-5-methyl-7-oxo-7,8-dihydropyrido[2,3-d]pyrimidin-2-yl)amino)pyridin-3-yl)piperazin-1-yl)acetamido)ethoxy)ethoxy)propanamido)-N-(6-cyanopyridazin-3-yl)benzamide]",D (protein percentage degradation <30%),,
,< 30,"Cc1nc(NC(=O)c2ccccc2NC(=O)CCCCCCCNC(=O)CN2CCN(c3ccc(Nc4ncc(F)c(-c5cc(F)c6nc(C)n(C(C)C)c6c5)n4)nc3)CC2)sc1C [CPD-306, N-(4,5-Dimethylthiazol-2-yl)-2-(8-(2-(4-(6-((5-fluoro-4-(4-fluoro-1-isopropyl-2-methyl-1H-benzo[d]imidazol-6-yl)pyrimidin-2-yl)amino)pyridin-3-yl)piperazin-1-yl)acetamido)octanamido)benzamide]",,D (protein percentage degradation < 30%),
50 to 80,,"CC(=O)c1c(C)c2cnc(Nc3ccc(N4CCN(CC(=O)NCCOCCOCCC(=O)Nc5cc6c(cc5C(=O)Nc5ccc(C)cn5)CCCN6)CC4)cn3)nc2n(C2CCCC2)c1=O [CPD-358, 7-(3-(2-(2-(2-(4-(6-((6-Acetyl-8-cyclopentyl-5-methyl-7-oxo-7,8-dihydropyrido[2,3-d]pyrimidin-2-yl)amino)pyridin-3-yl)piperazin-1-yl)acetamido)ethoxy)ethoxy)propanamido)-N-(5-methylpyridin-2-yl)-1,2,3,4-tetrahydroquinoline-6-carboxamide]",A (protein percentage degradation >=80%),,
,50 to 80,"Cc1nc(NC(=O)c2ccccc2NC(=O)CCCCCCNC(=O)CN2CCN(c3ccc(Nc4ncc5cc6n(c5n4)C4(CCCCC4)CNC6=O)nc3)CC2)sc1C [CPD-319, N-(4,5-Dimethylthiazol-2-yl)-2-(7-(2-(4-(6-((6′-oxo-7′,8′-dihydro-6′H-spiro[cyclohexane-1,9′-pyrazino[1′,2′:1,5]pyrrolo[2,3-d]pyrimidin]-2′-yl)amino)pyridin-3-yl)piperazin-1-yl)acetamido)heptanamido)benzamide]",,A (protein percentage degradation >= 80%),
